According to patent US11357779B2 (G1 Therapeutics, Inc., priority 2018, dated 2022):
“Also recorded” adds a separate entry of the source. Like-named read-outs stand apart in the source and are kept apart here.

How the values were obtained:
[1] = Steady-state AUC0-24,ss, (AUC0-24,ss)/dose, half-life and time to steady state: Compound I versus palbociclib, ribociclib, abemaciclib; format: in vivo, human; conditions: for (Mean AUC0-24,ss)/Dose (mg) / Cmax / AUC(0-t): Day 29; for AUC(0-t): read-out: Mean AUC0-24,ss
From the text: The time to reach steady state was defined as five half-lives (97% steady state achieved). […] The AUC data are presented as the arithmetic mean. […] The AUC data are presented as the geometric mean. The steady-state AUC0-24 for various BID doses of abemaciclib provided in Table 89 was obtained from the above cited prior published studies. The AUC data are presented as the geometric mean.

[2] = Crystallization and slurry experiments, morphic forms of Compound II (XRPD, characterization); format: physicochemical; conditions: for Time point (1 day) XRPD: Stirring at RT
Experimental: Eleven unique XRPD patterns (Form A-Form K) of Compound II were obtained from crystallization and slurry experiments using various solvents.
Forms A, B, and D were evaluated as solid state forms.

[3] = Stability study under thermal stress, 60° C. for 7 days; format: physicochemical
Experimental: Forms A, B, and D were stored in an oven maintained at 60° C. for 7 days.

[4] = system: HR+, HER2− locally advanced or metastatic breast cancer; experiment: Clinical efficacy of Form B of Compound II plus fulvestrant, RECIST Version 1.1; format: in vivo, human; conditions: FIG. 3, FIG. 4; with fulvestrant
Experimental: Target lesions in subjects from Example 1 were evaluated every 8 weeks using the RECIST, Version 1.1 criteria (Eisenhower 2009) as follows: • Complete Response (CR): Disappearance of all target lesions. Any pathological lymph nodes (whether target or nontarget) must have reduction in short axis to <10 mm. • Partial Response (PR): At least a 30% decrease in the sum of diameters of target lesions, taking as reference the baseline sum of diameters. • Progressive Disease (PD): At least a 20% increase in the sum of diameters of target lesions, taking as reference the smallest sum on study (this includes the baseline sum if that is the smallest on study). […] A response category of not evaluable (NE) was used when there was inadequate information to otherwise categorize the response status. • Non-target lesions were evaluated using the following criteria: • Complete Response (CR): Disappearance of all nontarget lesions and normalization of tumor marker level. […]
The overall response (OR) was determined by evaluation of the combination of target and nontarget lesion responses as outlined in Table 94.
The clinical efficacy of the combination of Form B of Compound II and fulvestrant for QD dosing for the subjects from Example 1 was evaluated using the above criteria. […]

[5] = 200 mg QD of Form B of Compound II, five half-lives
[6] = human, plasma, oral, 200 mg QD of Form B of Compound II
[7] = human, plasma, oral, 300 mg QD of Form B of Compound II
[8] = human, plasma, oral, 400 mg QD of Form B of Compound II
[9] = human, plasma, oral, 500 mg QD of Form B of Compound II
[10] = human, plasma, oral, 650 mg QD of Form B of Compound II

CC(C)N1CCN(c2ccc(Nc3ncc4cc5n(c4n3)C3(CCCCC3)CNC5=O)nc2)CC1 [Compound I, 2′-((5-(4-isopropylpiperazin-1-yl)pyridin-2-yl)amino)-7′,8′-dihydro-6′H-spiro[cyclohexane-1,9′-pyrazino[1′,2′:1,5]pyrrolo[2,3-d]pyrimidin]-6′-one]
(Mean AUC0-24,ss)/Dose (mg) ([1]; 200 mg QD of Form B of Compound II): 1.15 ng·h/mL/mg
Time to Steady State [1, 5]: 3.2 days
Time to Steady-State [1, 5]: 76 h
(Mean AUC0-24,ss)/Dose (mg) ([1]; 300 mg QD of Form B of Compound II): 1.97 ng·h/mL/mg
(Mean AUC0-24,ss)/Dose (mg) ([1]; 400 mg QD of Form B of Compound II): 0.695 ng·h/mL/mg
(Mean AUC0-24,ss)/Dose (mg) ([1]; 500 mg QD of Form B of Compound II): 1.21 ng·h/mL/mg
(Mean AUC0-24,ss)/Dose (mg) ([1]; 650 mg QD of Form B of Compound II): 1.47 ng·h/mL/mg
(AUC0-24,ss)/Dose ([1]; Compound I, Day 29, QD dosing of Form B of Compound II): ≤ 5
half-life [1, 6]: 15.2 h
Cmax [1, 6]: 20.4 ng/mL
AUC(0-t) [1, 6]: 229 ng·h/mL
Cmax [1, 7]: 47 ng/mL
AUC(0-t) [1, 7]: 592 ng·h/mL
Cmax [1, 8]: 19 ng/mL
AUC(0-t) [1, 8]: 278 ng·h/mL
Cmax [1, 9]: 43.2 ng/mL
AUC(0-t) [1, 9]: 607 ng·h/mL
Cmax [1, 10]: 66 ng/mL
AUC(0-t) [1, 10]: 956 ng·h/mL

CC(C)N1CCN(c2ccc(Nc3ncc4cc5n(c4n3)C3(CCCCC3)CNC5=O)nc2)CC1 [Compound II, 2′-((5-(4-isopropylpiperazin-1-yl)pyridin-2-yl)amino)-7′,8′-dihydro-6′H-spiro[cyclohexane-1,9′-pyrazino[1′,2′:1,5]pyrrolo[2,3-d]pyrimidin]-6′-one]
XRPD ([2]; MeOH/0.5 mL, 60.0° C., Fast Cooling (4° C.), anti solvent EtOAc/0.2 mL, ppt/filter): Weak crystalline
XRPD ([2]; MeOH/0.5 mL, 60.0° C., Fast Cooling (4° C.), anti solvent n-BuOH/5.0 mL, ppt/filter): Weak crystalline
XRPD ([2]; MeOH/0.5 mL, 60.0° C., Fast Cooling (4° C.), anti solvent n-PrOH/5.0 mL, ppt/filter): Weak crystalline
XRPD ([2]; MeOH/0.5 mL, 60.0° C., Slow Cooling (20° C./hr), anti solvent Acetone/0.5 mL, ppt/filter): Weak crystalline
XRPD ([2]; MeOH/0.5 mL, 60.0° C., Slow Cooling (20° C./hr), anti solvent EtOH/5.0 mL, ppt/filter): Weak crystalline
XRPD ([2]; MeOH/0.5 mL, 60.0° C., Slow Cooling (20° C./hr), anti solvent MIBK/0.1 mL, ppt/filter (first listing)): Weak crystalline
XRPD ([2]; MeOH/0.5 mL, 60.0° C., Slow Cooling (20° C./hr), anti solvent MeCN/2.5 mL, ppt/filter): Weak crystalline
XRPD ([2]; MeOH/0.5 mL, 60.0° C., Slow Cooling (20° C./hr), anti solvent THF/0.5 mL, ppt/filter): Weak crystalline
XRPD ([2]; MeOH/0.5 mL, 60.0° C., Slow Cooling (20° C./hr), anti solvent Toluene/1.5 mL, ppt/filter (second listing)): Weak crystalline
XRPD ([2]; MeOH/0.5 mL, 60.0° C., Slow Cooling (20° C./hr), anti solvent n-BuOH/5.0 mL, ppt/filter): Weak crystalline
XRPD ([2]; MeOH/0.5 mL, 60.0° C., Slow Cooling (20° C./hr), anti solvent n-PrOH/5.0 mL, ppt/filter): Weak crystalline
XRPD ([2]; Water/0.5 mL, 60.0° C., Fast Cooling (4° C.), anti solvent EtOH/5.0 mL, Clear/Evap.): Weak crystalline
XRPD ([2]; Water/0.5 mL, 60.0° C., Fast Cooling (4° C.), anti solvent MeCN/5.0 mL, ppt/filter): Weak crystalline
XRPD ([2]; Water/0.5 mL, 60.0° C., Fast Cooling (4° C.), anti solvent THF/3.0 mL, ppt/filter): Weak crystalline
XRPD ([2]; Water/0.5 mL, 60.0° C., Fast Cooling (4° C.), anti solvent n-PrOH/5.0 mL, Clear/Evap.): Weak crystalline
XRPD ([2]; Water/0.5 mL, 60.0° C., Slow Cooling (20° C./hr), anti solvent EtOH/5.0 mL, Clear/Evap.): Weak crystalline
XRPD ([2]; single solvent crystallization: 1-BuOH 4.0 mL, 60° C., Fast Cooling (4° C.), ppt/filter): Weak
XRPD ([2]; single solvent crystallization: 1-PrOH 4.0 mL, 60° C., Fast Cooling (4° C.), ppt/filter): Weak
XRPD ([2]; single solvent crystallization: 1-PrOH 4.0 mL, 60° C., Slow (20° C./hr), ppt/filter): Weak
XRPD ([2]; single solvent crystallization: MeOH 0.5 mL, 60° C., Fast Cooling (4° C.), ppt/filter): Weak
XRPD ([2]; single solvent crystallization: Water 2.0 mL, 60° C., Fast Cooling (4° C.), Turbid/Evap.): Weak
XRPD ([2]; single solvent crystallization: Water 2.0 mL, 60° C., Slow (20° C./hr), Turbid/Evap.): Weak
Time point (1 day) XRPD ([2]; slurry in 2-MeTHF 1.0 mL): Weak
Time point (1 day) XRPD ([2]; slurry in IPAc 1.0 mL): A with extra
Time point (1 day) XRPD ([2]; slurry in MEK 1.0 mL): Weak
Time point (1 day) XRPD ([2]; slurry in THF 1.0 mL): Weak

CC(C)N1CCN(c2ccc(Nc3ncc4cc5n(c4n3)C3(CCCCC3)CNC5=O)nc2)CC1 [Form B]
XRPD pattern after thermal stress [3]: stable; also recorded: No change in the XRPD pattern; also recorded: remained unchanged
anti-tumor activity (waterfall and spider plots, target lesions) [4]: effective anti-tumor activity
